Experiments:
Settings in all cases: in vivo
[1] = test system: total growth of marine organisms on the panels
[2] = test system: growth of marine organisms on the painted surfaces
[3] = test system: blue mussel Mytilus edulis
[4] = test system: sea tulip Balanus improvisus

## COc1cc(CNC(=O)CCCC/C=C/C(C)C)ccc1O [capsaicin, (E)-8-methyl-N-vanillyl-6-nonenamide]
[1]
  Reduction in growth measured as a reduction in wet weight of total growth: 64%
  Wet weight of the total growth on the panels compared with the two other treatments: statistically lower growth
[2]
  Growth on surfaces by optical comparison with the control surfaces: considerably less growth
[3]
  Coverage of the blue mussel Mytilus edulis, difference between the 3 treatments: no statistically significant difference
[4]
  Coverage of the sea tulip Balanus improvisus compared with the 2 other treatments: significantly lower
  Reduction in growth measured as coverage of the sea tulip: 74%
